Measurements as given in the supplement of paper PMC13380429.

Tests used:
Settings in all cases: 72 h
Caco-2 [1] = assay: cell viability relative to DMSO; higher = less toxic
Calu-3 [2] = assay: as above
HepG2 [3] = assay: as above
U2OS [4] = assay: as above
Vero E6 [5] = assay: as above
Caco-2 [6] = assay: relative viability EC50 (midpoint between 100% and the lowest measured viability); higher = less toxic
Calu-3 [7] = assay: as above
HepG2 [8] = assay: as above
U2OS [9] = assay: as above
Vero E6 [10] = assay: as above
Caco-2 [11] = assay: drug sensitivity score (DSS) for viability; higher = more toxic; extreme values may be limits of the assay
Calu-3 [12] = assay: as above
HepG2 [13] = assay: as above
U2OS [14] = assay: as above
Vero E6 [15] = assay: as above

Row | SMILES | cell viability (Caco-2 [1]; 1 nM) | cell viability (Caco-2 [1]; 10 nM) | cell viability (Caco-2 [1]; 100 nM) | cell viability (Caco-2 [1]; 1000 nM) | cell viability (Caco-2 [1]; 10000 nM) | cell viability (Calu-3 [2]; 1 nM) | cell viability (Calu-3 [2]; 10 nM) | cell viability (Calu-3 [2]; 100 nM) | cell viability (Calu-3 [2]; 1000 nM) | cell viability (Calu-3 [2]; 10000 nM) | cell viability (HepG2 [3]; 1 nM) | cell viability (HepG2 [3]; 10 nM) | cell viability (HepG2 [3]; 100 nM) | cell viability (HepG2 [3]; 1000 nM) | cell viability (HepG2 [3]; 10000 nM) | cell viability (U2OS [4]; 1 nM) | cell viability (U2OS [4]; 10 nM) | cell viability (U2OS [4]; 100 nM) | cell viability (U2OS [4]; 1000 nM) | cell viability (U2OS [4]; 10000 nM) | cell viability (Vero E6 [5]; 1 nM) | cell viability (Vero E6 [5]; 10 nM) | cell viability (Vero E6 [5]; 100 nM) | cell viability (Vero E6 [5]; 1000 nM) | cell viability (Vero E6 [5]; 10000 nM) | relative viability EC50 (Caco-2 [6]) | relative viability EC50 (Calu-3 [7]) | relative viability EC50 (HepG2 [8]) | relative viability EC50 (U2OS [9]) | relative viability EC50 (Vero E6 [10]) | drug sensitivity score (Caco-2 [11]) | drug sensitivity score (Calu-3 [12]) | drug sensitivity score (HepG2 [13]) | drug sensitivity score (U2OS [14]) | drug sensitivity score (Vero E6 [15])
1 | CN1Cc2c(N)cccc2C(c2ccccc2)C1 (stereo not drawn) [nomifensine] | 97.1% | 95% | 98% | 94.6% | 103% | 104% | 98.2% | 100% | 106% | 96.8% | 106% | 110% | 93.5% | 103% | 97.3% | 101% | 100% | 102% | 101% | 96.3% | 97.9% | 96.8% | 94.2% | 99.4% | 110% | > 10 µM | > 10 µM | > 10 µM | > 10 µM | > 10 µM | 0 | 0 | 0 | 0 | 0
2 | C[C@H](Cn1cnc2c(N)ncnc21)OCP(=O)(O)O [tenofovir] | 97.8% | 89.2% | 96.9% | 99.6% | 107% | 98.4% | 101% | 94.7% | 93.3% | 93.8% | 93.9% | 94.6% | 105% | 107% | 115% | 101% | 98.6% | 102% | 99.8% | 103% | 94.4% | 94.4% | 97.2% | 94.5% | 107% | > 10 µM | > 10 µM | > 10 µM | > 10 µM | > 10 µM | 0 | 0 | 0 | 0 | 0
3 | C(#CCN1CCCC1)CN1CCCC1 [tremorine] | 91.8% | 108% | 87.3% | 97.7% | 83.1% | 109% | 104% | 96.3% | 88.3% | 103% | 88.5% | 103% | 100% | 97.8% | 93.6% | 94.9% | 101% | 91.5% | 95.3% | 92.7% | 103% | 108% | 98.5% | 104% | 92% | > 10 µM | > 10 µM | > 10 µM | > 10 µM | > 10 µM | 0.3 | 0 | 0 | 0 | 0
4 | COc1cc(NC(=O)c2cccc(-n3cc(NC(=O)Nc4cccc(C)c4)cn3)c2)cc(OC)c1OC [SR-3576] | 104% | 105% | 101% | 85.2% | 87.7% | 91.1% | 93.9% | 93.4% | 93.1% | 81% | 98.3% | 99.4% | 94.1% | 95.3% | 99.4% | 100% | 102% | 100% | 99.6% | 91.1% | 101% | 102% | 97.2% | 96.6% | 95.9% | > 10 µM | > 10 µM | > 10 µM | > 10 µM | > 10 µM | 1.3 | 0.6 | 0 | 0 | 0
5 | N[C@@H]1c2cccnc2[C@H](OC(=O)N2CCC(n3c(=O)[nH]c4ncccc43)CC2)CC[C@H]1c1cccc(F)c1F [rimegepant] | 99.3% | 94.5% | 98.1% | 91.2% | 102% | 90.7% | 95.3% | 98.4% | 92.9% | 97.6% | 92.4% | 98.6% | 98.8% | 106% | 104% | 102% | 96.1% | 101% | 97.2% | 100% | 97% | 96.8% | 91.6% | 99.7% | 112% | > 10 µM | > 10 µM | > 10 µM | > 10 µM | > 10 µM | 0 | 0 | 0 | 0 | 0
6 | CCCCc1nc(-c2ccc(OCCCN(CC)CC)cc2)cn1-c1ccc(Oc2ccc(Cl)cc2)cc1 [azeliragon] | 101% | 97% | 99.4% | 93.5% | 4.5% | 109% | 105% | 99.4% | 98.9% | 8.5% | 95.1% | 94.8% | 90.2% | 94% | 0.1% | 97.7% | 97.8% | 98.9% | 91% | 30.4% | 96.2% | 105% | 91.8% | 99.5% | 0% | 2.61 µM | 3.08 µM | 2.69 µM | 2.12 µM | 3.13 µM | 6.3 | 5.2 | 6.4 | 5.3 | 5.7
7 | COc1ccc(C2CC(c3ccccc3)=NN2c2ccc(S(N)(=O)=O)cc2)cc1 (stereo not drawn) [ML141] | 94.9% | 95.2% | 97.6% | 97.8% | 80.7% | 85.8% | 105% | 105% | 110% | 104% | 106% | 102% | 102% | 104% | 94.8% | 102% | 110% | 93.3% | 108% | 94% | 112% | 103% | 109% | 95.9% | 102% | > 10 µM | > 10 µM | > 10 µM | > 10 µM | > 10 µM | 0.8 | 0 | 0 | 0 | 0
8 | O=C1[C@@H]2[C@H]3CC[C@H](C3)[C@@H]2C(=O)N1CCCCN1CCN(c2ncccn2)CC1 [tandospirone] | 93.6% | 95.5% | 94.1% | 98.2% | 95.4% | 113% | 103% | 92% | 86.8% | 99.7% | 107% | 97% | 110% | 104% | 99.7% | 98.3% | 98.6% | 98.5% | 99.8% | 97.7% | 107% | 104% | 98.5% | 96.2% | 101% | > 10 µM | > 10 µM | > 10 µM | > 10 µM | > 10 µM | 0 | 1.3 | 0 | 0 | 0
9 | COCCCOc1ccnc(C[S+]([O-])c2nc3ccccc3[nH]2)c1C (stereo not drawn) [rabeprazole] | 99.4% | 102% | 97.3% | 94.8% | 95.6% | 98% | 92.7% | 98.6% | 103% | 100% | 97.6% | 106% | 91.9% | 94.6% | 95.8% | 102% | 97.4% | 100% | 99.9% | 100% | 98% | 108% | 94.3% | 105% | 100% | > 10 µM | > 10 µM | > 10 µM | > 10 µM | > 10 µM | 0 | 0 | 0 | 0 | 0
10 | CCCCCCCCCCCCCCCC[N+](C)(C)CCN(Cc1ccc(OC)cc1)c1ncccn1 [thonzonium] | 106% | 98.1% | 110% | 80.3% | 7.2% | 102% | 100% | 96.3% | 85.8% | -0.1% | 94.4% | 101% | 93.8% | 103% | 24.4% | – | – | – | – | – | 96% | 97.8% | 94.6% | 97.5% | 85.6% | 1.69 µM | 2.04 µM | 3.41 µM | – | > 10 µM | 8.3 | 7.9 | 3.9 | – | 0.4
11 | N=C(N)NCCC[C@H](NC(=O)c1sccc1NS(=O)(=O)c1cccc2nsnc12)C(=O)O | 96.9% | 104% | 98.5% | 101% | 105% | 92.7% | 110% | 106% | 117% | 110% | 105% | 101% | 95.8% | 105% | 103% | 98.3% | 102% | 96.3% | 105% | 98.4% | 105% | 103% | 101% | 98.4% | 97.1% | > 10 µM | > 10 µM | > 10 µM | > 10 µM | > 10 µM | 0 | 0 | 0 | 0 | 0
12 | CC(C)=CCC/C(C)=C/CC/C(C)=C/CSc1ccccc1C(=O)O [salirasib] | 93.4% | 97.8% | 98.9% | 96.3% | 92.6% | 104% | 99.6% | 101% | 103% | 99.2% | 98.5% | 98.7% | 93.9% | 98.5% | 94.8% | 102% | 97.3% | 98% | 96.6% | 97.9% | 95.8% | 103% | 97.2% | 97.4% | 97.3% | > 10 µM | > 10 µM | > 10 µM | > 10 µM | > 10 µM | 0 | 0 | 0 | 0 | 0
13 | CC(C)(C)C#Cc1cc(N(C(=O)[C@H]2CC[C@H](C)CC2)[C@H]2CC[C@@H](O)CC2)c(C(=O)O)s1 [VX-222] | 103% | 114% | 102% | 99.8% | 101% | 92.5% | 94.9% | 99.2% | 99.3% | 104% | 98.7% | 101% | 91.7% | 96.2% | 101% | 105% | 106% | 98.2% | 105% | 97.6% | 104% | 96.1% | 106% | 99.8% | 102% | > 10 µM | > 10 µM | > 10 µM | > 10 µM | > 10 µM | 0 | 0 | 0 | 0 | 0
